Measured values reported in US5776892A, “Anti-inflammatory peptides” (Curative Health Services, Inc., priority 1994, dated 1998).
Where “and” joins values, the source holds several entries; their conditions need not be identical. Identical values can stand only once. No end group written: not given here.

System: arachidonic acid induced inflammation in mouse ear
Assay: Mouse ear model, arachidonic acid (AA) induced inflammation, ear thickness
Assay type: in vivo
Conditions: for % Reduction of Ear Swelling / Ear Thickness: Table I, sc Alzet minipump
Experimental: The anti-inflammatory properties of CT-112 (SEQ. ID NO: 1) were assessed using a standardized assay for anti-inflammatory activity, i.e., the mouse ear model in which arachidonic acid (AA) is used to induce an inflammatory reaction (Young et al., 1984, J. Invest. Dermatol. 82:367-371; Doherty, et al., 1988, J. Invest. Dermatol. 91:298-302).
Female mice (C57BL/6UAF, Charles River Breeding Laboratories, approximately 15-18 g) were obtained and acclimated for 2 weeks prior to use. The animals were approximately 14 weeks old at the start of the study.
To prepare minipumps for implantation, CT-112 (SEQ. ID NO: 1) was dissolved in PBS. The material was loaded into Alzet minipumps set to deliver 0.05 (5 animals), 0.1 (10 animals), 1 (10 animals), or 2.5 (5 animals) mg of CT-112 (SEQ. ID NO: 1) per animal per day. Minipumps for implantation into control animals contained only PBS. As a positive control, one set of 10 mice received 100 mg/kg of phenidone, a potent 5-lipoxygenase inhibitor which acts as an anti-inflammatory agent, 15 min prior to challenge with AA.
For subcutaneous implantation of minipumps, animals were anesthetized with Ketamine/Xylazine. The Ketamine (Aveco Lot #440140) was injected at 80 mg/kg and the Xylazine (Rugby Laboratories Lot #26040-B) at 16 mg/kg and the Alzet pumps were implanted subcutaneously in the dorsothoracic area. Animals were allowed to recover and then housed and given food and water ad libitum for 5 days.
On the sixth day following pump implantation, 0.01 ml of AA was applied to the inner and outer surfaces of the right ear by means of an automatic microliter pipette. One hr following AA application, the mice were sacrificed and ear thickness was measured with a Mitutoyo No. 7300 Gauge Caliper. The left ears were also measured as an internal control.
Mice were implanted with Alzet mini-pumps set to deliver 60 mg/kg/day for either 7, 3, or 1 days. A separate group of 5 mice received 3 intraperitoneal injections of CT-112 (60 mg/kg/injection) at 24, 1 and 0.25 hr prior to AA challenge. CT-112 (SEQ. ID NO: 1) was prepared for injection by dissolving the compound in Dulbecco's PBS to give a final CT-112 (SEQ. ID NO: 1) concentration of 5 mg/ml. The control mice were implanted with Alzet minipumps that delivered PBS for 7 days. The AA challenge was the same as described supra in Example 7.
Administration of CT-112 (SEQ. ID NO: 1) (60 mg/kg/injection) via multiple intraperitoneal injections was performed at the following times prior to AA challenge:
In addition, the effect of a single administration of CT-112 (SEQ. ID NO: 1) (60 mg/kg) by intraperitoneal injection was performed at either 1 or 3 hr prior to AA challenge. Control mice had Alzet minipumps implanted to deliver PBS for 7 days prior to AA challenge. The AA challenge was the same as described supra in Example 7. The results of the multiple dosing regimens and the 1 hr and 3 hr single dosing regimens were compared to the anti-inflammatory activity of CT-112 (SEQ. ID NO: 1) delivered via Alzet minipump set to deliver 60 mg/kg/day for 7 days using 5 animals per treatment.
In a separate experiment, the effect of multiple intraperitoneal injections of CT-112 (SEQ. ID NO: 1) at either 6, 3, 1 and 0.25 hr, or 16, 3, 1 and 0.25 hr prior to AA challenge was assessed. The results of both multi-dosing regimens were compared to both phenidone (100 mg/kg administered 15 min prior to AA challenge) and CT-112 (SEQ. ID NO: 1) administered via Alzet mini-pump (60 mg/kg/day for 7 days). For this latter study, the number of animals receiving the single injection of CT-112 (SEQ. ID NO: 1) was increased from 5 to 10.
Administration to mice of CT-112 (SEQ. ID NO: 1) (60 mg/kg/injection) via multiple subcutaneous injections prior to AA challenge was performed at:
In addition, other mice received only a single subcutaneous injection of CT-112 (SEQ. ID NO: 1) (60 mg/kg) at either 3 or 1 hr prior to AA challenge. […]

[1] = Table III, 1-day pump, 60 mg/kg/day
[2] = Table III, 3-day pump, 60 mg/kg/day
[3] = Table III, 7-day pump, 60 mg/kg/day
[4] = Table III, ip 60 mg/kg/injection at 24, 1, 0.25 hr prior to AA
[5] = Table IV, 7-day pump, 60 mg/kg/day
[6] = Table IV, ip 60 mg/kg/injection at 1, 0.25 hr prior to AA
[7] = Table IV, ip 60 mg/kg/injection at 3, 1, 0.25 hr prior to AA
[8] = Table IV, ip 60 mg/kg/injection at 6, 3, 1, 0.25 hr prior to AA
[9] = Table IV, single ip 60 mg/kg 3 hr prior to AA
[10] = Table V, 7-day pump, 60 mg/kg/day
[11] = Table V, ip at 6, 3, 1, 0.25 hr prior to AA
[12] = Table V, ip at 16, 3, 1, 0.25 hr prior to AA
[13] = Table VI, 7-day pump, 60 mg/kg/day
[14] = Table VI, sc 60 mg/kg/injection at 1, 0.25 hr prior to AA
[15] = Table VI, sc 60 mg/kg/injection at 3, 1, 0.25 hr prior to AA
[16] = Table VI, sc 60 mg/kg/injection at 6, 3, 1, 0.25 hr prior to AA
[17] = Table VI, single sc 60 mg/kg 1 hr prior to AA
[18] = Table VI, single sc 60 mg/kg 3 hr prior to AA
[19] = Table VII, 3 day pump, 60 mg/kg/day
[20] = Table VII, single ip 3 hr prior to AA
[21] = Table VII, single sc 0.25 hr prior to AA
[22] = Table VII, single sc 1 hr prior to AA
[23] = Table VII, single sc 3 hr prior to AA
[24] = Table VII, single sc 6 hr prior to AA
[25] = Table VIII, 3 day pump, 60 mg/kg/day
[26] = Table VIII, po 200 mg/kg/gavage at 1, 0.25 hr prior to AA
[27] = Table VIII, po 200 mg/kg/gavage at 6, 3, 1, 0.25 hr prior to AA
[28] = Table VIII, single po 200 mg/kg 1 hr prior to AA
[29] = Table VIII, single po 200 mg/kg 3 hr prior to AA
[30] = Table XI, 60 mg/kg/day minipump, 3 days

For “TTSQVRPR [CT-112, octapeptide derived from platelet factor 4]”, the “% Reduction of Ear Swelling” value (0.05 mg/animal/day) was 43.1%, the “Ear Thickness” value (0.05 mg/animal/day, AA on day 6) was 0.01577 ± 0.00155 in and the “% Reduction of Ear Swelling” value (0.1 mg/animal/day) was 43.1%. The “Ear Thickness” value (0.1 mg/animal/day) was 0.01577 ± 0.00191 in, the “% Reduction of Ear Swelling” value (1.0 mg/animal/day) was 89.0% and the “Ear Thickness” value (1.0 mg/animal/day) was 0.01128 ± 0.00291 in. For the same sequence, the “% Reduction of Ear Swelling” value (2.5 mg/animal/day) was 95.6%, the “Ear Thickness” value (2.5 mg/animal/day) was 0.0106 ± 0.00175 in and the “% Inhibition of Inflammation” value [1] was 112%. The “Thickness Difference (Left-Right)” value [1] was -0.00074 ± 0.00119 in, the “% Inhibition of Inflammation” value [2] was 119% and the “Thickness Difference (Left-Right)” value [2] was -0.00115 ± 0.00058 in. For the same sequence, the “% Inhibition of Inflammation” value [3] was 108%, the “Thickness Difference (Left-Right)” value [3] was -0.00051 ± 0.00116 in and the “% Inhibition of Inflammation” value [4] was 62%. For the same sequence, the “Thickness Difference (Left-Right)” value [4] was 0.00226 ± 0.00124 in, the “% Inhibition of Inflammation” value [5] was 94% and 93.9% and the “Thickness Difference (Left-Right)” value [5] was 0.00033 ± 0.00065 in. The “% Inhibition of Inflammation” value [6] was 64.4%, the “Thickness Difference (Left-Right)” value [6] was 0.00192 ± 0.00148 in and the “% Inhibition of Inflammation” value [7] was 73.8%. For the same sequence, the “Thickness Difference (Left-Right)” value [7] was 0.00141 ± 0.00138 in, the “% Inhibition of Inflammation” value [8] was 73.2% and the “Thickness Difference (Left-Right)” value [8] was 0.00144 ± 0.00126 in. The “Thickness Difference (Left-Right)” value (Table IV, single ip 60 mg/kg 1 hr prior to AA) was 0.00308 ± 0.00189 in, the “% Inhibition of Inflammation” value (Table IV, single ip 60 mg/kg 1 hr prior to AA, 60 mg/kg) was 43% and 42.9% and the “% Inhibition of Inflammation” value [9] was 78.5%. The “Thickness Difference (Left-Right)” value [9] was 0.00116 ± 0.001 in, the “% Inhibition of Inflammation” value [10] was 100.5% and the “Thickness Difference (Left-Right)” value [10] was -0.00003 ± 0.0012 in. The “% Inhibition of Inflammation” value [11] was 61.4%, the “Thickness Difference (Left-Right)” value [11] was 0.00249 ± 0.0017 in and the “% Inhibition of Inflammation” value [12] was 56.3%. For the same sequence, the “Thickness Difference (Left-Right)” value [12] was 0.00283 ± 0.00218 in, the “% Inhibition of Inflammation” value [13] was 87% and 86.5% and the “Thickness Difference (Left-Right)” value [13] was 0.00083 ± 0.00084 in. For the same sequence, the “% Inhibition of Inflammation” value [14] was 68.4%, the “Thickness Difference (Left-Right)” value [14] was 0.00195 ± 0.00131 in and the “% Inhibition of Inflammation” value [15] was 68.7%. For the same sequence, the “Thickness Difference (Left-Right)” value [15] was 0.00193 ± 0.0007 in, the “% Inhibition of Inflammation” value [16] was 76.2% and the “Thickness Difference (Left-Right)” value [16] was 0.00147 ± 0.00041 in. The “% Inhibition of Inflammation” value [17] was 71.8%, the “Thickness Difference (Left-Right)” value [17] was 0.00174 ± 0.00128 in and the “% Inhibition of Inflammation” value [18] was 65.5%. For the same sequence, the “Thickness Difference (Left-Right)” value [18] was 0.00213 ± 0.00089 in, the “% Inhibition of Inflammation” value [19] was 67.0% and the “Thickness Difference (Left-Right)” value [19] was 0.00127 ± 0.00128 in. For the same sequence, the “% Inhibition of Inflammation” value [20] was 37.2%, the “Thickness Difference (Left-Right)” value [20] was 0.00242 ± 0.00187 in and the “% Inhibition of Inflammation” value [21] was 34.7%. The “Thickness Difference (Left-Right)” value [21] was 0.00252 ± 0.00128 in, the “% Inhibition of Inflammation” value [22] was 44.5% and the “Thickness Difference (Left-Right)” value [22] was 0.00214 ± 0.00122 in. The “% Inhibition of Inflammation” value [23] was 36.9%, the “Thickness Difference (Left-Right)” value [23] was 0.00243 ± 0.00107 in and the “% Inhibition of Inflammation” value [24] was 69.6%. The “Thickness Difference (Left-Right)” value [24] was 0.00117 ± 0.00066 in, the “% Inhibition of Inflammation” value [25] was 88% and 88.4% and the “Thickness Difference (Left-Right)” value [25] was 0.00058 ± 0.00086 in. The “% Inhibition of Inflammation” value [26] was 51.9%, the “Thickness Difference (Left-Right)” value [26] was 0.00241 ± 0.00124 in and the “Thickness Difference (Left-Right)” value (Table VIII, po 200 mg/kg/gavage at 3, 1, 0.25 hr prior to AA) was 0.0028 ± 0.00114 in. For the same sequence, the “% Inhibition of Inflammation” value (Table VIII, po 200 mg/kg/gavage at 3, 1, 0.25 hr prior to AA, 200 mg/kg) was 44% and 44.1%, the “% Inhibition of Inflammation” value [27] was 73.3% and the “Thickness Difference (Left-Right)” value [27] was 0.00134 ± 0.00257 in. The “% Inhibition of Inflammation” value [28] was 72.3%, the “Thickness Difference (Left-Right)” value [28] was 0.00139 ± 0.00122 in and the “% Inhibition of Inflammation” value [29] was 93.8%. The “Thickness Difference (Left-Right)” value [29] was 0.00031 ± 0.00198 in, the “% Inhibition of Inflammation” value (Table XI, 6 mg/kg/day minipump, 3 days) was 40.8% and the “Thickness Difference (Left-Right)” value (Table XI, 6 mg/kg/day minipump, AA 3 days after implantation) was 0.00381 ± 0.00066 in. For the same sequence, the “% Inhibition of Inflammation” value [30] was 85.2%, the “Thickness Difference (Left-Right)” value [30] was 0.00095 ± 0.00064 in and the “Thickness Difference (Left-Right)” value (Table XIII, 60 mg/kg/day via Alzet pump for 24 hr) was 0.00132 ± 0.00086 in. For the same sequence, the “Thickness Difference (Left-Right)” value (Table XIV, 60 mg/kg/day via Alzet pump for 24 hr) was 0.00134 ± 0.00044 in, the “Thickness Difference (Left-Right)” value (Table XV, 60 mg/kg/day via Alzet pump for 24 hr) was 0.00154 ± 0.00092 in and the “% Inhibition” value (Table XVI, single 6 mg/kg sc 4 hr prior to AA, ear thickness 1 hr post-challenge) was 64.9%. The duration of activity (after single subcutaneous injection) was “greater than 6 hr”, the “inhibition of the inflammatory process” value (ip 60 mg/kg/injection, all multi-dosing regimens and the 3 hr single dosing regimen) was “approximately 70%” and the reduction in inflammation (multiple ip injections at either 6, 3, 1, 0.25 hr or 16, 3, 1, 0.25 hr prior to AA) was 56-61%. The “inhibition of the inflammatory process” value (oral 200 mg/kg/gavage, all multi- and single-dosing regimens except 3, 1, 0.25 hr) was 52-94%.
